Results on seven molecules are retold here after patent US20230167118A1, “DEGRADATION OF BRUTON'S TYROSINE KINASE (BTK) BY CONJUGATION OF BTK INIDBITORS WITH E3 LIGASE LIGAND AND METHODS OF USE” (BEIGENE, LTD., priority 2020, published 2023).

Structures are written as SMILES.

In one test the test system is HEK-293 cells. The test is described as follows: HEK-293 Cytotoxicity Assay (CellTiter-Glo). The format is cell-based. The note with it: Homo sapiens, HEK293, 72 h incubation, CellTiter-Glo luminescence. The essentials: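 Four-parameter fit of % inhibition gives IC50, from CellTiter-Glo luminescent viability read-out. Cells exposed for 72 h to an 8-point, 4-fold series at 0.2% DMSO.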

For a further test, the target named is T1, BTK (Homo sapiens, UniProt Q06187).
T1 construct: High control=Cell group with added DMSO and without compound, indicating microplate readings without BTK degradation; endogenous in cells; host or cells: TMD-8 cells
The test is described as follows: Cell Degradation: BTK degradation in TMD-8 cells, HTRF assay. Format: cell-based. The settings on record: 6 h treatment, IC50 (DC50) of BTK degradation. The method in brief:
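BTK levels read by HTRF (665 vs 620 nm) in lysates of TMD-8 cells after 6 h compound exposure (eight doses, 6-fold steps, 0.2% DMSO). Percent degradation relative to controls; four-parameter curve fitting gave DC50, with Dmax the top degradation.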
(In TR-FRET formats the signal depends on donor and acceptor labels being close together.)

T1 sequence (Q06187 whole entry): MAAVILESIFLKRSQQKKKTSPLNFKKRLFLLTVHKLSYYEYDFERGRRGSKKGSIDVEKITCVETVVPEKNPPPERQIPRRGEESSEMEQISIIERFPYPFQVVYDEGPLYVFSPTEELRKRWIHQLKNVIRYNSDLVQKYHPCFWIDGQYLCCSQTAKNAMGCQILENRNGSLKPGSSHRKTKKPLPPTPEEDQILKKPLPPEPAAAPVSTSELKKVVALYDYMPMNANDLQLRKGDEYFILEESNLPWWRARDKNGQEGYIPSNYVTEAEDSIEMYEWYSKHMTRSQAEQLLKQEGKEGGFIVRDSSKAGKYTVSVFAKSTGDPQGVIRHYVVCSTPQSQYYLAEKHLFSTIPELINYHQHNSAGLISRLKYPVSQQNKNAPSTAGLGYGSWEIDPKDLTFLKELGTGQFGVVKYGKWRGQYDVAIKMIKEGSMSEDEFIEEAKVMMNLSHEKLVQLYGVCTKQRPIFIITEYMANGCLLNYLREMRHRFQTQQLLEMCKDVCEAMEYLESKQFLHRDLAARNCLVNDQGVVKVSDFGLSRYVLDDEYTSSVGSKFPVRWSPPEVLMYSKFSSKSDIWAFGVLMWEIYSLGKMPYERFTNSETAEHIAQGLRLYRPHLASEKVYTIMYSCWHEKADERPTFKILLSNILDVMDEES

Regarding `Cc1cc(-c2ncnc3[nH]c(-c4ccc(N5CCN([C@H]6C[C@@H](c7ccc(O[C@H]8CCC(=O)NC8=O)cc7)C6)CC5)nc4)cc23)ccc1[C@@H](C)NC(=O)c1nc(C(C)(C)C)no1` [Example 191, 3-(tert-butyl)-N-((R)-1-(4-(6-(6-(4-((1R,3s)-3-(4-(((S)-2,6-dioxopiperidin-3-yl)oxy)phenyl)cyclobutyl)piperazin-1-yl)pyridin-3-yl)-7H-pyrrolo[2,3-d]pyrimidin-4-yl)-2-methylphenyl)ethyl)-1,2,4-oxadiazole-5-carboxamide], the half-maximal inhibitory concentration (IC50) in the test on HEK-293 cells is above 10000 nM. Besides, half-maximal degradation on BTK (DC50) was put at 1.59 nM.
In the same order, the values of `C[C@@H](NC(=O)c1nc(C(C)(C)C)no1)c1ccc(-c2ncnc3[nH]c(-c4ccc(N5CCN(CC6CCN(c7ccc(N8CCC(=O)NC8=O)cc7)CC6)CC5)nc4)cc23)cc1F` [Example 33, (R)-3-(tert-butyl)-N-(1-(4-(6-(6-(4-((1-(4-(2,4-dioxotetrahydropyrimidin-1(2H)-yl)phenyl)piperidin-4-yl)methyl)piperazin-1-yl)pyridin-3-yl)-7H-pyrrolo[2,3-d]pyrimidin-4-yl)-2-fluorophenyl)ethyl)-1,2,4-oxadiazole-5-carboxamide] are above 10000 nM and 1.7 nM.
In the same order, the values of `Cc1cc(-c2ncnc3[nH]c(-c4ccc(N5CCN(CCC6CCN(c7ccc([C@@H]8CCC(=O)NC8=O)cc7)CC6)CC5)nc4)cc23)ccc1[C@@H](C)NC(=O)c1nc(C(C)(C)C)no1` [Example 54, 3-(tert-butyl)-N-((R)-1-(4-(6-(6-(4-(2-(1-(4-((S)-2,6-dioxopiperidin-3-yl)phenyl)piperidin-4-yl)ethyl)piperazin-1-yl)pyridin-3-yl)-7H-pyrrolo[2,3-d]pyrimidin-4-yl)-2-methylphenyl)ethyl)-1,2,4-oxadiazole-5-carboxamide] are above 10000 nM and 3.7 nM.
The corresponding values for `Cc1cc(-c2ncnc3[nH]c(-c4ccc(C5CCN(CC6CCN(c7ccc(N8CCC(=O)NC8=O)cc7)CC6)CC5)cc4)cc23)ccc1[C@H](C)NC(=O)c1nc(C(C)(C)C)no1` [Example 8, (S)-3-(tert-butyl)-N-(1-(4-(6-(4-(1-((1-(4-(2,4-dioxotetrahydropyrimidin-1(2H)-yl)phenyl)piperidin-4-yl)methyl)piperidin-4-yl)phenyl)-7H-pyrrolo[2,3-d]pyrimidin-4-yl)-2-methylphenyl)ethyl)-1,2,4-oxadiazole-5-carboxamide] are 1960 nM and 40.9 nM.
In the test with HEK-293 cells, `C[C@@H](NC(=O)c1noc(C(C)(C)C)n1)c1ccc(-c2ncnc3[nH]c(-c4ccc(N5CCN(CC6CCN(c7ccc(N8CCC(=O)NC8=O)cc7)CC6)CC5)cn4)cc23)cc1CO` [Example 136, (R)-5-(tert-butyl)-N-(1-(4-(6-(5-(4-((1-(4-(2,4-dioxotetrahydropyrimidin-1(2H)-yl)phenyl)piperidin-4-yl)methyl)piperazin-1-yl)pyridin-2-yl)-7H-pyrrolo[2,3-d]pyrimidin-4-yl)-2-(hydroxymethyl)phenyl)ethyl)-1,2,4-oxadiazole-3-carboxamide] showed an IC50 above 10000 nM. This molecule also registered a DC50 at BTK of 0.17 nM.
In the same order, the values of `C[C@@H](NC(=O)c1nc(C(C)(C)C)no1)c1ccc(-c2ncnc3[nH]c(-c4ccc(N5CCN(CC6CCN(c7ccc(N8CCC(=O)NC8=O)cc7)CC6)C[C@@H]5C)nc4)cc23)cc1F` [Example 80, 3-(tert-butyl)-N-((R)-1-(4-(6-(6-((S)-4-((1-(4-(2,4-dioxotetrahydropyrimidin-1(2H)-yl)phenyl)piperidin-4-yl)methyl)-2-methylpiperazin-1-yl)pyridin-3-yl)-7H-pyrrolo[2,3-d]pyrimidin-4-yl)-2-fluorophenyl)ethyl)-1,2,4-oxadiazole-5-carboxamide] are above 10000 nM and 4.3 nM.
For `Cc1cc(-c2ncnc3[nH]c(-c4ccc(C5(O)CN(CC6CCN(c7ccc(N8CCC(=O)NC8=O)cc7)CC6)C5)cn4)cc23)ccc1[C@@H](C)NC(=O)c1nc(C(C)(C)C)no1` [Example 172, (R)-3-(tert-butyl)-N-(1-(4-(6-(5-(1-((1-(4-(2,4-dioxotetrahydropyrimidin-1(2H)-yl)phenyl)piperidin-4-yl)methyl)-3-hydroxyazetidin-3-yl)pyridin-2-yl)-7H-pyrrolo[2,3-d]pyrimidin-4-yl)-2-methylphenyl)ethyl)-1,2,4-oxadiazole-5-carboxamide], the IC50 in the test on HEK-293 cells was above 10000 nM. The molecule further showed a DC50 on BTK of 0.24 nM.

By IC50 is commonly meant the concentration that inhibits the measured activity by half. High values mean weaker potency in that assay, low ones greater potency in that assay. One may read the DC50 as the midpoint of the concentration-degradation curve. A low value points to degradation at low concentration.
